The source of these data is patent US11168083B2, “Inhibitors of Plasma Kallikrein and uses thereof” (Takeda Pharmaceutical Company Limited, priority 2017, dated 2021).

pEC50, pIC50: −log10 of the molar value. Read-outs that look alike come from different tables or passages of the source.

Common to all, as to format: biochemical
Experiment [1] deals with human activated kallikrein enzyme (Homo sapiens (Human), UniProt P03952). The experiment is described as follows: Inhibition of human activated kallikrein enzyme, fluorogenic peptide substrate assay (two formats). Particulars: read-out: pKal EC50; for EC50: Table 2, column head prints nM, ranges defined in μM; for pEC50: Table 3. The gist of the method:
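Fluorogenic Pro-Phe-Arg-AMC substrate (300 uM) in 20 mM Tris pH 7.5, 150 mM NaCl, 1 mM EDTA, 0.1% PEG-400, 0.1% Triton X-100; enzyme and inhibitor preincubated 30 min at room temperature. Format one: 500 pM enzyme, 10 min reaction; format two: 5 pM enzyme, 18 hr reaction. Fluorescence read at 380 nm excitation/460 nm emission.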

The next experiment addresses FXa (Homo sapiens (Human), UniProt P00742). Nature of the experiment: Selectivity screen of serine proteases, anti-target panel: FXa. How it is done:
(§1) Compounds 11, 33, and 53 were evaluated in a selectivity screen of serine proteases.

In the next experiment the target is Thrombin (Homo sapiens (Human), UniProt P00734). Nature of the experiment: Selectivity screen of serine proteases, anti-target panel: Thrombin. How it is done: as §1
Another experiment has as its target Elastase. Nature of the experiment: Selectivity screen of serine proteases, anti-target panel: Elastase. How it is done: as §1
For a further experiment, the system named is Trypsin. Nature of the experiment: Selectivity screen of serine proteases, anti-target panel: Trypsin. How it is done:
as §1

The test system of experiment [2] is selected anti-target proteases. Nature of the experiment: Selectivity screen of serine proteases (overall statement). The note with it: none showed any inhibitory activity of the anti-target proteases. As to the method:
as §1

Sequence of human activated kallikrein enzyme (P03952 391-638): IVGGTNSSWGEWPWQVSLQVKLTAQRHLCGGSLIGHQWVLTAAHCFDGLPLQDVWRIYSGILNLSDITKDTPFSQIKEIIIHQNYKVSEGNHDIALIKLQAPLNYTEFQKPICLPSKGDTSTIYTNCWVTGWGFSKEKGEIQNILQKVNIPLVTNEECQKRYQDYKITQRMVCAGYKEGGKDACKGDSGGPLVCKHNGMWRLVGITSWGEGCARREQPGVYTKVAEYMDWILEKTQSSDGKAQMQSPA
Sequence of human activated kallikrein enzyme (P03952 20-390 partner): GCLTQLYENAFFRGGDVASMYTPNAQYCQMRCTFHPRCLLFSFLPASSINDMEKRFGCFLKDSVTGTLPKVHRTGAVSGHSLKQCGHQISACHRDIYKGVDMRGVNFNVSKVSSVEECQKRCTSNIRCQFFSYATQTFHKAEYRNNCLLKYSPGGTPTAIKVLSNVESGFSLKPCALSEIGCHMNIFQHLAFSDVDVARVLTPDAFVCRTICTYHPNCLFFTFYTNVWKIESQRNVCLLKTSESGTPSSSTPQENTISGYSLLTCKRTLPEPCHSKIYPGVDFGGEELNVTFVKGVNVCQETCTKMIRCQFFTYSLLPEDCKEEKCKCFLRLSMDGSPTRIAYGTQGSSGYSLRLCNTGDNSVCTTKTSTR
Sequence of FXa (P00742 235-488): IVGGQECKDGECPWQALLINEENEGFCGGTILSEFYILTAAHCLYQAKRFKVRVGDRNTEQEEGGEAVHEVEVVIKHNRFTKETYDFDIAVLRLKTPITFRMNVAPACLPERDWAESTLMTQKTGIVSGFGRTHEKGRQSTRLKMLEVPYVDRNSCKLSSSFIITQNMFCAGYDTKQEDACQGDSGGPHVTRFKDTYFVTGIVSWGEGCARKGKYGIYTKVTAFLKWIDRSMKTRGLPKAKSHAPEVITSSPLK
Sequence of FXa (P00742 41-179 partner): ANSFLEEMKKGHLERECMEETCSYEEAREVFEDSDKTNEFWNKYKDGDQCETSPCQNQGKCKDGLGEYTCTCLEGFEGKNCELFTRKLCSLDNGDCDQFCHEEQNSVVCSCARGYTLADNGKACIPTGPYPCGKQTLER

Usually EC50 stands for the midpoint of the concentration-response curve. A word on the pEC50: it is −log10 of the EC50, conventionally taken in molar units. What is called pIC50 is −log10 of the IC50, conventionally taken in molar units. Read a high pIC50 as a low IC50. In the case of `CNC(=O)[C@H](CCCCNC(=N)N)NC(=O)c1csc([C@@H]2C[C@@H](N)CN2C(=O)c2cn3cc(Cl)ccc3n2)n1` [Compound 11, 2-((2S,4R)-4-amino-1-(6-chloroimidazo[1,2-a]pyridine-2-carbonyl)pyrrolidin-2-yl)-N—((S)-6-guanidino-1-(methylamino)-1-oxohexan-2-yl)thiazole-4-carboxamide], the EC50 in experiment [1] is not above 100 nM. The pEC50 in experiment [1] is 7.49. Besides, the negative-log IC50 (pIC50) on FXa is less than 5.00; at Thrombin, less than 5.00; against Elastase it was less than 5.00; in the experiment on Trypsin, less than 4.00. The “Selectivity for pKal over selected anti-target proteases” value (from here on “Selectivity for pKal”) in experiment [2] is given as “selective inhibitors of pKal”.

For the molecule `CNC(=O)[C@H](CCCCNC(=N)N)NC(=O)c1csc([C@@H]2CCCN2C(=O)c2cn3cc(Cl)ccc3n2)n1` [Compound 33, 2-((S)-1-(6-Chloroimidazo[1,2-a]pyridine-2-carbonyl)pyrrolidin-2-yl)-N—((S)-6-guanidino-1-(methylamino)-1-oxohexan-2-yl)thiazole-4-carboxamide], the concentration giving a half-maximal response (EC50) in experiment [1] fell in the range of 1000 to 5000 nM. For the same molecule, the pEC50 in experiment [1] is 5.49. In addition, the pIC50 on FXa is less than 5.00; against Thrombin, less than 5.00; at Elastase it was less than 5.00; in the experiment on Trypsin, less than 4.00. In experiment [2], the “Selectivity for pKal” value is given as “selective inhibitors of pKal”.

As for `Nc1nccc2cc(CCNC(=O)c3csc([C@@H]4C[C@@H](N)CN4C(=O)c4cn5cc(Cl)ccc5n4)n3)ccc12` [Compound 53, 2-((2S,4R)-4-amino-1-(6-chloroimidazo[1,2-a]pyridine-2-carbonyl)pyrrolidin-2-yl)-N-(2-(1-aminoisoquinolin-6-yl)ethyl)thiazole-4-carboxamide], the 50% effective concentration (EC50) in experiment [1] is not above 100 nM. The pEC50 in experiment [1] was 7.82. Moreover, the pIC50 against FXa was less than 5.00; against Thrombin, less than 5.00; against Elastase, less than 5.00; in the experiment with Trypsin, less than 4.00. Also, the “Selectivity for pKal” value in experiment [2] is “selective inhibitors of pKal”.
